{"source": "paper PMC10663540", "about": "“Structure-based discovery of dual pathway inhibitors for SARS-CoV-2 entry” (Nature Communications, 2023)", "key": {"in vitro": {"experiment": "in vitro", "conditions": "human"}, "human CTSL": {"biological_target": "T1, human CTSL (Homo sapiens, UniProt P07711)", "T1 construct": "made in house", "T1 sequence (P07711 114-333)": "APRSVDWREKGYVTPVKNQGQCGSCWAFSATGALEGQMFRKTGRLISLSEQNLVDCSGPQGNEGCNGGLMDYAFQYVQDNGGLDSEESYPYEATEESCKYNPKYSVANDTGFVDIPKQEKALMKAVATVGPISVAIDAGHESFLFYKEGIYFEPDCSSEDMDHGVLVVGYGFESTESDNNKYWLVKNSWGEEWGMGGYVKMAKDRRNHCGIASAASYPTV", "experiment": "FRET enzymatic inhibition assay of CTSL (IC50 measurement)", "type": "biochemical", "conditions": "rep1-rep4"}, "Calu-3 cells": {"system": "Calu-3 cells", "conditions": "rep1-rep3"}}, "note": "“And” between values parts separate entries of the source, which are not always exact repeats. Identical values can stand only once. Like-named read-outs stand apart in the source and are kept apart here."}
{"smiles": "N=C(N)c1ccc2cc(OC(=O)c3ccc(N=C(N)N)cc3)ccc2c1", "note": "[Nafamostat]", "values": [{"measurement": "CC50", "setting": "in vitro", "value": 452, "unit": "µM"}]}
{"smiles": "CN1CCN(C(=O)N[C@@H](Cc2ccccc2)C(=O)N[C@H](/C=C/S(=O)(=O)c2ccccc2)CCc2ccccc2)CC1", "note": "[K777]", "values": [{"measurement": "Inhibition: CTSL", "setting": "human CTSL; 0.0762939 nM, 7.62939e-05 µM", "value": "1.13% and 5.78% and 3.59% and 2.15%"}, {"measurement": "inhibition at 0.000152588 µM", "setting": "human CTSL; 0.152588 nM", "value": 5.42, "unit": "%"}, {"measurement": "Inhibition: CTSL", "setting": "human CTSL; 0.152588 nM, 0.000152588 µM", "value": "10.09% and 6.36% and 10.80%"}, {"measurement": "inhibition at 0.000610352 µM", "setting": "human CTSL; 0.610352 nM", "value": 9.96, "unit": "%"}, {"measurement": "Inhibition: CTSL", "setting": "human CTSL; 0.610352 nM, 0.000610352 µM", "value": "11.08% and 11.88% and 12.12%"}, {"measurement": "inhibition at 0.0012207 µM", "setting": "human CTSL; 1.2207 nM", "value": 14.1, "unit": "%"}, {"measurement": "Inhibition: CTSL", "setting": "human CTSL; 1.2207 nM, 0.0012207 µM", "value": "15.17% and 15.67% and 15.23%"}, {"measurement": "inhibition at 0.00244141 µM", "setting": "human CTSL; 2.44141 nM", "value": 27.1, "unit": "%"}, {"measurement": "Inhibition: CTSL", "setting": "human CTSL; 2.44141 nM, 0.00244141 µM", "value": "29.89% and 27.84% and 28.16%"}, {"measurement": "inhibition at 0.00488281 µM", "setting": "human CTSL; 4.88281 nM", "value": 46.7, "unit": "%"}, {"measurement": "Inhibition: CTSL", "setting": "human CTSL; 4.88281 nM, 0.00488281 µM", "value": "49.46% and 47.59% and 48.29%"}, {"measurement": "inhibition at 0.00976562 µM", "setting": "human CTSL; 9.76562 nM", "value": 73.6, "unit": "%"}, {"measurement": "Inhibition: CTSL", "setting": "human CTSL; 9.76562 nM, 0.00976562 µM", "value": "74.62% and 72.91% and 72.68%"}, {"measurement": "inhibition at 0.0195312 µM", "setting": "human CTSL; 19.5312 nM", "value": 93.2, "unit": "%"}, {"measurement": "Inhibition: CTSL", "setting": "human CTSL; 19.5312 nM, 0.0195312 µM", "value": "93.40% and 92.49% and 94.07%"}, {"measurement": "inhibition at 0.0390625 µM", "setting": "human CTSL; 39.0625 nM", "value": 99.5, "unit": "%"}, {"measurement": "Inhibition: CTSL", "setting": "human CTSL; 39.0625 nM, 0.0390625 µM", "value": "98.76% and 99.78% and 99.61%"}, {"measurement": "inhibition at 0.078125 µM", "setting": "human CTSL; 78.125 nM", "value": 100, "unit": "%"}, {"measurement": "Inhibition: CTSL", "setting": "human CTSL; 78.125 nM, 0.078125 µM", "value": "99.93% and 100.35% and 99.32%"}, {"measurement": "inhibition at 0.15625 µM", "setting": "human CTSL; 156.25 nM", "value": 100, "unit": "%"}, {"measurement": "Inhibition: CTSL", "setting": "human CTSL; 156.25 nM, 0.15625 µM", "value": "100.75% and 100.78%"}, {"measurement": "inhibition at 0.3125 µM", "setting": "human CTSL; 312.5 nM", "value": 100, "unit": "%"}, {"measurement": "Inhibition: CTSL", "setting": "human CTSL; 312.5 nM, 0.3125 µM", "value": "100.44% and 100.24% and 99.50%"}, {"measurement": "inhibition at 0.625 µM", "setting": "human CTSL; 625 nM", "value": 100, "unit": "%"}, {"measurement": "Inhibition: CTSL", "setting": "human CTSL; 625 nM, 0.625 µM", "value": "100.05% and 99.89%"}, {"measurement": "inhibition at 1.25 µM", "setting": "human CTSL; 1250 nM", "value": 100, "unit": "%"}, {"measurement": "Inhibition: CTSL", "setting": "human CTSL; 1250 nM, 1.25 µM", "value": "100.44% and 100.07% and 99.92%"}, {"measurement": "inhibition at 2.5 µM", "setting": "human CTSL; 2500 nM", "value": 100, "unit": "%"}, {"measurement": "Inhibition: CTSL", "setting": "human CTSL; 2500 nM, 2.5 µM", "value": "100.03% and 100.38% and 100.68%"}, {"measurement": "inhibition at 5 µM", "setting": "human CTSL; 5000 nM", "value": 100, "unit": "%"}, {"measurement": "Inhibition: CTSL", "setting": "human CTSL; 5000 nM, 5 µM", "value": "100.04% and 100.18% and 100.13%"}, {"measurement": "inhibition at 10 µM", "setting": "human CTSL; 10000 nM", "value": 100, "unit": "%"}, {"measurement": "Inhibition: CTSL", "setting": "human CTSL; 10000 nM, 10 µM", "value": "100.22% and 100.09% and 99.98%"}, {"measurement": "Cytotoxicity", "setting": "Calu-3 cells; 0.017 μM", "value": "8.99% and 10.05% and 10.29%"}, {"measurement": "Cytotoxicity", "setting": "Calu-3 cells; 0.05 μM", "value": "20.39% and 20.63% and 20.94%"}, {"measurement": "Cytotoxicity", "setting": "Calu-3 cells; 0.15 μM", "value": "17.33% and 17.61% and 17.94%"}, {"measurement": "Cytotoxicity", "setting": "Calu-3 cells; 0.46 μM", "value": "15.43% and 15.73% and 16.02%"}, {"measurement": "Cytotoxicity", "setting": "Calu-3 cells; 4.1 μM", "value": "16.54% and 16.77% and 16.98%"}, {"measurement": "Cytotoxicity", "setting": "Calu-3 cells; 12.3 μM", "value": "18.57% and 18.78% and 19.05%"}, {"measurement": "Cytotoxicity", "setting": "Calu-3 cells; 37 μM", "value": "15.46% and 15.63% and 15.88%"}, {"measurement": "Cytotoxicity", "setting": "Calu-3 cells; 111.1 μM", "value": "60.74% and 60.66% and 60.71%"}, {"measurement": "Cytotoxicity", "setting": "Calu-3 cells; 333.3 μM", "value": "97.79% and 97.81%"}, {"measurement": "Cytotoxicity", "setting": "Calu-3 cells; 1000 μM", "value": 99.56, "unit": "%"}, {"measurement": "CC50", "setting": "in vitro", "value": 110, "unit": "µM"}]}
